Source: ChEMBL document CHEMBL5244247, “Natural and synthetic coumarins as antileishmanial agents: A review” (Eur J Med Chem, 2020)
Values after ≈ are worked out from the molar mass of the structure shown. Values joined by “and” are separate entries in the source; they are usually repeats but may differ in a detail not shown here. Equal entries are not always repeated.

Key:
Leishmania braziliensis [1] = assay: Antileishmanial activity against amastigote form of Leishmania braziliensis; type: functional
Leishmania braziliensis [2] = assay: Antileishmanial activity against promastigote form of Leishmania braziliensis; type: functional, organism-based; conditions: for IC50: Leishmania braziliensis
Leishmania amazonensis [3] = assay: Antileishmanial activity against intracellular Leishmania amazonensis MHOM/BR/75/Josefa amastigotes infected in BALB/c mouse peritoneal macrophages assessed as parasite growth inhibition incubated for 24 hrs by regression analysis; type: functional, organism-based; conditions: Peritoneal macrophage
Leishmania amazonensis [4] = assay: Antileishmanial activity against promastigote form of Leishmania amazonensis assessed as parasite growth inhibition incubated for 72 hrs by regression analysis; type: functional, organism-based
[5] = Selectivity index, ratio of CC50 for cytotoxicity against mouse J774G8 cells to IC50 for antileishmanial activity against intracellular Leishmania amazonensis MHOM/BR/75/Josefa amastigotes infected in BALB/c mouse peritoneal macrophages; type: toxicity, cell-based; conditions: read-out: Ratio CC50/IC50
Leishmania amazonensis [6] = assay: Antileishmanial activity against amastigote form of Leishmania amazonensis assessed as parasite growth inhibition incubated for 72 hrs by regression analysis; type: functional, organism-based
Leishmania donovani [7] = assay: Antileishmanial activity against promastigote form of Leishmania donovani; type: functional, organism-based
Leishmania amazonensis [8] = assay: Antileishmanial activity against Leishmania amazonensis infected in BALB/c mouse assessed as reduction in parasite load at 10 mg/kg, sc administered for 14 days relative to control; type: functional; set-up: scale not given: the % may be the effect or the level left; conditions: time 14.0 day
Leishmania major [9] = assay: Antileishmanial activity against promastigote form of Leishmania major; type: functional, organism-based
Leishmania amazonensis [10] = assay: Antileishmanial activity against amastigote form of Leishmania amazonensis assessed as parasite growth inhibition; type: functional, organism-based
Leishmania amazonensis [11] = assay: Antileishmanial activity against promastigote form of Leishmania amazonensis assessed as parasite growth inhibition incubated for 72 hrs by neubauer counting chamber analysis; type: functional, organism-based
[12] = Selectivity index, ratio of IC50 for cytotoxicity against human THP-1 cells to IC50 for antileishmanial activity against axenic amastigote stage of Leishmania infantum infected in human THP-1 cells; type: toxicity, cell-based; conditions: read-out: Selectivity Index
THP-1 = assay: Cytotoxicity against human THP-1 cells assessed as inhibition incubated for 24 hrs by flow cytometry assay; type: functional, cell-based; conditions: THP-1, 24 h
Leishmania infantum [13] = assay: Antileishmanial activity against axenic amastigote stage of Leishmania infantum infected in human THP-1 cells assessed as inhibition of parasite growth incubated for 24 hrs by flow cytometry assay; type: functional, organism-based; conditions: THP-1, 24 h
Leishmania major [14] = assay: Antileishmanial activity against promastigote form of Leishmania major assessed as inhibition at 0.1 uM incubated for 72 hrs by MTT assay relative to control; type: functional
Leishmania major [15] = assay: Antileishmanial activity against promastigote form of Leishmania major assessed as inhibition at 100 uM incubated for 72 hrs by MTT assay relative to control; type: functional
Leishmania major [16] = assay: Antiproliferative activity against promastigote form of Leishmania major assessed as lethal dose; type: functional; conditions: read-out: LD50 (the source's name)
Leishmania major [17] = assay: Antileishmanial activity against promastigote form of Leishmania major assessed as inhibition of parasite growth by Litchfield-Wilcoxon method; type: functional, organism-based
[18] = target: Acetylcholinesterase (Homo sapiens) (UniProt P22303); assay: Inhibition of AChE (unknown origin) assessed as inhibition zone by Ellman's colorimetric method
Leishmania major [19] = assay: Antileishmanial activity against promastigote form of Leishmania major assessed as inhibition of parasite growth by MTT colorimetric cell viability assay; type: functional, organism-based
Leishmania infantum [20] = assay: Antileishmanial activity against promastigote form of Leishmania infantum; type: functional, organism-based
Leishmania chagasi = assay: Antileishmanial activity against promastigote form of Leishmania chagasi; type: functional, organism-based
Leishmania mexicana = assay: Antileishmanial activity against promastigote form of Leishmania mexicana; type: functional, organism-based
Leishmania amazonensis [21] = assay: Antileishmanial activity against promastigote form of Leishmania amazonensis; type: functional, organism-based
Leishmania major [22] = assay: Antileishmanial activity against promastigote form of Leishmania major assessed as inhibition incubated for 72 hrs by MTT assay; type: functional, organism-based
Leishmania donovani [23] = assay: Antileishmanial activity against amastigote form of Leishmania donovani at 50 uM assessed as inhibition of parasite growth relative to control; type: functional
Leishmania donovani [24] = assay: Antileishmanial activity against amastigote form of Leishmania donovani; type: functional, organism-based
Leishmania amazonensis [25] = assay: Antileishmanial activity against promastigote form of Leishmania amazonensis assessed as inhibition of parasite growth at 200 uM incubated for 72 hrs by neubauer counting chamber analysis relative to control; type: functional

Acetylcholinesterase (Homo sapiens), sequence (P22303 whole entry): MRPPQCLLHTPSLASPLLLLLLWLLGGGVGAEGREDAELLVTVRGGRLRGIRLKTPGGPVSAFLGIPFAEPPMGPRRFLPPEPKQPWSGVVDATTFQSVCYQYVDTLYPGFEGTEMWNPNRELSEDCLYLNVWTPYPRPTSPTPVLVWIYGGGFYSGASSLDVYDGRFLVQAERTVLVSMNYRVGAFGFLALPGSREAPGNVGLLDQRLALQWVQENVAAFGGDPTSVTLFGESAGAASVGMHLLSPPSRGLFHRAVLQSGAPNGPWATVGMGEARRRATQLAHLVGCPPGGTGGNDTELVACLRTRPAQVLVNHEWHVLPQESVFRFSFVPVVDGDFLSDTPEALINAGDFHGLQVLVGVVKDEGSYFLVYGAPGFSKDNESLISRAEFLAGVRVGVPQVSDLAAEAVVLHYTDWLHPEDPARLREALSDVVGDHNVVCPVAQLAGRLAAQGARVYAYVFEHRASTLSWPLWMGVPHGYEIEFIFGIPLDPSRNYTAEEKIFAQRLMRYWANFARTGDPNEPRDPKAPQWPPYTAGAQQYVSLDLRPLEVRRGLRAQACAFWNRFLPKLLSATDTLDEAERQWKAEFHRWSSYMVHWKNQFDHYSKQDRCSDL

## CCC(C)C(=O)c1c(O)c(CC=C(C)C)c(O)c2c(-c3ccccc3)cc(=O)oc12 (stereo not drawn)
Leishmania braziliensis [1]
  LD50: 22 µg/mL
Leishmania braziliensis [1]; Leishmania braziliensis, read-out: LD50 (the source's name)
  LC50: 29 mg/L (≈ 71.3 µM)
Leishmania braziliensis [2]
  LD50: 23.2 µg/mL and 60 µg/mL
Leishmania amazonensis [3]
  IC50: 14.3 µM
Leishmania amazonensis [4]
  IC50: 3 µg/mL and 7.4 µM
[5]
  selectivity ratio: 4.4
Leishmania amazonensis [6]
  IC50: 0.88 mg/L (≈ 2.16 µM)

## CN(C)c1ccc(C(c2c(O)c3ccccc3oc2=O)c2c(O)c3ccccc3oc2=O)cc1
Leishmania donovani [7]
  IC50: 150 mg/L

## CCC(C)C(=O)c1c(O)c(CCC(C)C)c(O)c2c1OC(=O)CC2c1ccccc1 (stereo not drawn)
Leishmania amazonensis [3]
  IC50: 0.6 µM
Leishmania amazonensis [4]
  IC50: 0.9 µM
[5]
  selectivity ratio: 142

## MEGLUMINE ANTIMONATE
Leishmania amazonensis [8]
  Activity: 95.2%

## CC1=CC[C@H]2[C@@H](CC[C@@H](O)C2(C)C)[C@]1(C)COc1ccc2ccc(=O)oc2c1
Leishmania major [9]
  IC50: 46.8 mg/L (≈ 122 µM)

## Cc1cccc2cc(C(c3c(O)c4ccccc4oc3=O)N3CCCCC3)c(Cl)nc12 (stereo not drawn)
Leishmania donovani [7]
  IC50: 9.9 µM

## CC(=O)OC[C@H]1O[C@@H](Oc2ccc3c(-c4ccccc4)cc(=O)oc3c2)[C@H](OC(C)=O)[C@@H](OC(C)=O)[C@@H]1OC(C)=O
Leishmania amazonensis [10]
  IC50: 34.9 µM
Leishmania amazonensis [11]
  IC50: 10 µM

## CCC(C)C(OC)c1c(OC)c(CC=C(C)C)c(OC)c2c(-c3ccccc3)cc(=O)oc12 (stereo not drawn)
Leishmania amazonensis [3]
  IC50: 22.2 µM
Leishmania amazonensis [4]
  IC50: 1.9 µM

## COc1cc2oc(=O)cc(C[Se]C#N)c2cc1OC
[12]
  selectivity ratio: 19.4
THP-1
  IC50: 16 µM
Leishmania infantum [13]
  IC50: 0.82 µM

## CCC(C)C(=O)c1c(OC)c(CC=C(C)C)c(OC)c2c(-c3ccccc3)cc(=O)oc12 (stereo not drawn)
Leishmania amazonensis [4]
  IC50: 15.1 µM

## Cc1cccc(-n2c(-c3cc4ccccc4oc3=O)cs/c2=N/NC(=O)c2cc3ccccc3oc2=O)c1C
Leishmania major [14]
  inhibition at 0.1 µM: 53.9%
Leishmania major [15]
  inhibition at 100 µM: 70.4%

## CCCc1cc(=O)oc2c(C(=O)C(C)CC)c(O)c(CC=C(C)C)c(O)c12 (stereo not drawn)
Leishmania amazonensis [4]
  IC50: 30.1 µM

## CC(C)=CCC/C(C)=C/COc1ccc2ccc(=O)oc2c1
Leishmania major [16]
  LC50: 30 µM
Leishmania major [17]
  IC50: 17.1 µM

## CNC(=O)Oc1ccc2c(c1)[C@]1(C)CCN(C)[C@@H]1N2C
[18]
  inhibition zone (IZ): 9 mm

## CC1CC(CC(C)(O)C(O)COc2ccc3ccc(=O)oc3c2O)OC1=O (stereo not drawn)
Leishmania major [19]
  IC50: > 100 µM

## C=C1CC(CC(C)(O)C(O)COc2ccc3ccc(=O)oc3c2O)OC1=O (stereo not drawn)
Leishmania major [19]
  IC50: 12.1 µM

## COc1cc2ccc(=O)oc2cc1OC [SCOPARONE]
Leishmania infantum [20]
  IC50: > 50 µM
Leishmania chagasi
  EC50: 21.4 mg/L (≈ 104 µM)
Leishmania braziliensis [2]
  IC50: > 50 µM
[18]
  inhibition zone (IZ): 8 mm
Leishmania mexicana
  EC50: 9.11 mg/L (≈ 44.2 µM)
Leishmania donovani [7]
  EC50: 27.5 mg/L (≈ 133 µM)
Leishmania major [9]
  EC50: 14.4 mg/L (≈ 69.7 µM)
Leishmania amazonensis [21]
  IC50: > 50 µM

## COC(=O)C1=C(N)Oc2cc(O)c3c(C)cc(=O)oc3c2C1c1ccc(Cl)cc1 (stereo not drawn)
Leishmania amazonensis [10]
  IC50: 38.4 µM

## O=c1oc2ccccc2cc1-c1nnc2n1N=C(c1ccc(Cl)cc1)CS2
Leishmania major [22]
  IC50: 2.86 µM

## Cc1cccc(-n2c(-c3cc4ccccc4oc3=O)cs/c2=N/NC(=O)c2cc3ccccc3oc2=O)c1
Leishmania major [14]
  inhibition at 0.1 µM: 53.7%
Leishmania major [15]
  inhibition at 100 µM: 62.7%

## C=C1C=C[C@H]2C(C)(C)C(=O)CC[C@]2(C)[C@@H]1COc1ccc2ccc(=O)oc2c1
Leishmania major [9]
  IC50: 43.8 mg/L (≈ 116 µM)

## N#C/C(=N\Nc1ccccc1)C1=COC(c2cc3ccccc3oc2=O)=CC1C#N (stereo not drawn)
Leishmania donovani [23]
  inhibition at 50 µM: 92%
Leishmania donovani [24]
  IC50: 14.2 µM

## COC(=O)C1=C(N)Oc2cc(O)c3c(C)cc(=O)oc3c2C1c1ccc(Br)cc1 (stereo not drawn)
Leishmania amazonensis [10]
  IC50: 33.2 µM

## COc1cc2ccc(=O)oc2c2c1OC(C)(C)C=C2
Leishmania amazonensis [25]
  inhibition at 200 µM: 100%
Leishmania amazonensis [11]
  IC50: 70 µM

## COc1cc2ccc(=O)oc2cc1O [SCOPOLETIN]
Leishmania infantum [20]
  IC50: > 50 µM
Leishmania braziliensis [2]
  IC50: > 50 µM
Leishmania amazonensis [21]
  IC50: > 50 µM

## CCC(C)C(=O)c1c(O)c(CC=C(C)C)c(OC)c2c(-c3ccccc3)cc(=O)oc12 (stereo not drawn)
Leishmania amazonensis [3]
  IC50: 34 µM
Leishmania amazonensis [4]
  IC50: 2.4 µM
